Source: PubChem BioAssay (NCI)
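Briefly, cells in 96-well plates were exposed to five compound concentrations for 48 h, and endpoints were estimated by linear interpolation. The concentration for 50% growth inhibition is given as GI50. TGI: concentration producing complete growth inhibition.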

What was measured:
Assay in all cases: growth of human tumour cells (NCI), 48 h
MCF7 breast = test system: MCF7 breast
RPMI-8226 leukemia = test system: RPMI-8226 leukemia
SR leukemia = test system: SR leukemia
HOP-62 NSCLC = test system: HOP-62 NSCLC
HCT-116 colon = test system: HCT-116 colon
U251 CNS = test system: U251 CNS
ACHN renal = test system: ACHN renal
BT-549 breast = test system: BT-549 breast
NCI-H522 lung = test system: NCI-H522 lung
HS 578T breast = test system: HS 578T breast
IGROV1 ovarian = test system: IGROV1 ovarian
NCI-H23 lung = test system: NCI-H23 lung
KM12 colon = test system: KM12 colon
OVCAR-5 ovarian = test system: OVCAR-5 ovarian
K-562 leukemia = test system: K-562 leukemia
NCI-H460 lung = test system: NCI-H460 lung
TK-10 renal = test system: TK-10 renal
HT29 colon = test system: HT29 colon
SF-295 CNS = test system: SF-295 CNS
HCC-2998 colon = test system: HCC-2998 colon
SK-MEL-5 melanoma = test system: SK-MEL-5 melanoma
OVCAR-8 ovarian = test system: OVCAR-8 ovarian
SNB-75 CNS = test system: SNB-75 CNS
MDA-MB-435 = test system: MDA-MB-435
OVCAR-3 ovarian = test system: OVCAR-3 ovarian
SNB-19 CNS = test system: SNB-19 CNS
A549 NSCLC = test system: A549 NSCLC
MALME-3M melanoma = test system: MALME-3M melanoma
UO-31 renal = test system: UO-31 renal
A498 renal = test system: A498 renal
LOX IMVI melanoma = test system: LOX IMVI melanoma
OVCAR-4 ovarian = test system: OVCAR-4 ovarian
MOLT-4 leukemia = test system: MOLT-4 leukemia
HL-60(TB) leukemia = test system: HL-60(TB) leukemia
HCT-15 colon = test system: HCT-15 colon
NCI/ADR-RES ovarian = test system: NCI/ADR-RES ovarian
DU-145 prostate = test system: DU-145 prostate
NCI-H226 lung = test system: NCI-H226 lung
SK-MEL-28 melanoma = test system: SK-MEL-28 melanoma
UACC-62 melanoma = test system: UACC-62 melanoma
COLO 205 colon = test system: COLO 205 colon
CAKI-1 renal = test system: CAKI-1 renal
RXF 393 renal = test system: RXF 393 renal
786-0 renal = test system: 786-0 renal
SK-MEL-2 melanoma = test system: SK-MEL-2 melanoma
SF-539 CNS = test system: SF-539 CNS
UACC-257 melanoma = test system: UACC-257 melanoma
SF-268 CNS = test system: SF-268 CNS
SK-OV-3 ovarian = test system: SK-OV-3 ovarian
M14 melanoma = test system: M14 melanoma
EKVX NSCLC = test system: EKVX NSCLC
SW-620 colon = test system: SW-620 colon
CCRF-CEM leukemia = test system: CCRF-CEM leukemia
SN12C renal = test system: SN12C renal
MDA-MB-231 breast = test system: MDA-MB-231 breast
PC-3 prostate = test system: PC-3 prostate

In the case of `Cc1c(C(=O)O)n(-c2ccc(Cl)cc2)c2ncnc(N)c12`, the GI50 (MCF7 breast) is reported as > 100 µM, the TGI (MCF7 breast) is reported as > 100 µM and the GI50 (RPMI-8226 leukemia) is reported as 12.4 µM. For the same compound, the TGI (RPMI-8226 leukemia) was 35.8 µM, the GI50 (SR leukemia) was 16.6 µM and the TGI (SR leukemia) was > 100 µM. It also gave a GI50 (HOP-62 NSCLC) of 20 µM, a TGI (HOP-62 NSCLC) of 58.6 µM and a GI50 (HCT-116 colon) of 20.5 µM. For the same compound, the TGI (HCT-116 colon) was 47.7 µM, the GI50 (U251 CNS) was 31.8 µM and the TGI (U251 CNS) was > 100 µM. The GI50 (ACHN renal) was 22.6 µM, the TGI (ACHN renal) was 96.9 µM and the GI50 (BT-549 breast) was 21.7 µM. It also gave a TGI (BT-549 breast) of 58.7 µM, a GI50 (NCI-H522 lung) of 16 µM and a TGI (NCI-H522 lung) of 50.5 µM. For the same compound, the GI50 (HS 578T breast) was 23.1 µM, the TGI (HS 578T breast) was 69.6 µM and the GI50 (IGROV1 ovarian) was 14.6 µM. For the same compound, the TGI (IGROV1 ovarian) was > 100 µM, the GI50 (NCI-H23 lung) was 16.7 µM and the TGI (NCI-H23 lung) was 37.2 µM. For the same compound, the GI50 (KM12 colon) was 29.9 µM, the TGI (KM12 colon) was > 100 µM and the GI50 (OVCAR-5 ovarian) was 46.4 µM. The TGI (OVCAR-5 ovarian) was > 100 µM, the GI50 (K-562 leukemia) was 21.4 µM and the TGI (K-562 leukemia) was > 100 µM. The GI50 (NCI-H460 lung) was 14.5 µM, the TGI (NCI-H460 lung) was 37.8 µM and the GI50 (TK-10 renal) was 21.8 µM. The TGI (TK-10 renal) was 70.1 µM, the GI50 (HT29 colon) was 22.6 µM and the TGI (HT29 colon) was 51 µM. For the same compound, the GI50 (SF-295 CNS) was 28.7 µM, the TGI (SF-295 CNS) was > 100 µM and the GI50 (HCC-2998 colon) was 23.6 µM. The TGI (HCC-2998 colon) was 57.1 µM, the GI50 (SK-MEL-5 melanoma) was 16.2 µM and the TGI (SK-MEL-5 melanoma) was 29.9 µM. The GI50 (OVCAR-8 ovarian) was 14 µM, the TGI (OVCAR-8 ovarian) was 59.9 µM and the GI50 (SNB-75 CNS) was 62 µM. For the same compound, the TGI (SNB-75 CNS) was > 100 µM, the GI50 (MDA-MB-435) was 33.2 µM and the TGI (MDA-MB-435) was > 100 µM. The GI50 (OVCAR-3 ovarian) was 17.5 µM, the TGI (OVCAR-3 ovarian) was > 100 µM and the GI50 (SNB-19 CNS) was 36.4 µM. The TGI (SNB-19 CNS) was 97.6 µM, the GI50 (A549 NSCLC) was 17.4 µM and the TGI (A549 NSCLC) was 65.3 µM. It also gave a GI50 (MALME-3M melanoma) of 31.5 µM, a TGI (MALME-3M melanoma) of 75.7 µM and a GI50 (UO-31 renal) of 10.3 µM. The TGI (UO-31 renal) was > 100 µM, the GI50 (A498 renal) was 19.4 µM and the TGI (A498 renal) was 52.2 µM. The GI50 (LOX IMVI melanoma) was 30.1 µM, the TGI (LOX IMVI melanoma) was > 100 µM and the GI50 (OVCAR-4 ovarian) was 48.4 µM. The TGI (OVCAR-4 ovarian) was > 100 µM, the GI50 (MOLT-4 leukemia) was 31.2 µM and the TGI (MOLT-4 leukemia) was > 100 µM. For the same compound, the GI50 (HL-60(TB) leukemia) was 37.3 µM, the TGI (HL-60(TB) leukemia) was > 100 µM and the GI50 (HCT-15 colon) was 24.1 µM. The TGI (HCT-15 colon) was 96.9 µM, the GI50 (NCI/ADR-RES ovarian) was 25.1 µM and the TGI (NCI/ADR-RES ovarian) was > 100 µM. The GI50 (DU-145 prostate) was 24.1 µM, the TGI (DU-145 prostate) was 75.4 µM and the GI50 (NCI-H226 lung) was 14.9 µM. The TGI (NCI-H226 lung) was 50.2 µM, the GI50 (SK-MEL-28 melanoma) was 64.8 µM and the TGI (SK-MEL-28 melanoma) was > 100 µM. For the same compound, the GI50 (UACC-62 melanoma) was 17 µM, the TGI (UACC-62 melanoma) was 41.9 µM and the GI50 (COLO 205 colon) was 21.7 µM. For the same compound, the TGI (COLO 205 colon) was 43.3 µM, the GI50 (CAKI-1 renal) was 19.2 µM and the TGI (CAKI-1 renal) was 67.8 µM. For the same compound, the GI50 (RXF 393 renal) was 13.6 µM, the TGI (RXF 393 renal) was 39.5 µM and the GI50 (786-0 renal) was 21.1 µM. For the same compound, the TGI (786-0 renal) was 56.2 µM, the GI50 (SK-MEL-2 melanoma) was 46.9 µM and the TGI (SK-MEL-2 melanoma) was > 100 µM. It also gave a GI50 (SF-539 CNS) of 22.7 µM, a TGI (SF-539 CNS) of 48.6 µM and a GI50 (UACC-257 melanoma) of 36.2 µM. The TGI (UACC-257 melanoma) was > 100 µM, the GI50 (SF-268 CNS) was 12.2 µM and the TGI (SF-268 CNS) was 38.9 µM. It also gave a GI50 (SK-OV-3 ovarian) of 43.9 µM, a TGI (SK-OV-3 ovarian) of 75.1 µM and a GI50 (M14 melanoma) of 22.6 µM. The TGI (M14 melanoma) was 53.6 µM, the GI50 (EKVX NSCLC) was 17.2 µM and the TGI (EKVX NSCLC) was 56.1 µM. The GI50 (SW-620 colon) was 32.3 µM, the TGI (SW-620 colon) was > 100 µM and the GI50 (CCRF-CEM leukemia) was 27.8 µM. The TGI (CCRF-CEM leukemia) was 90.5 µM, the GI50 (SN12C renal) was 19.5 µM and the TGI (SN12C renal) was 57.1 µM. It also gave a GI50 (MDA-MB-231 breast) of 18 µM, a TGI (MDA-MB-231 breast) of 70.1 µM and a GI50 (PC-3 prostate) of 19.4 µM. It also gave a TGI (PC-3 prostate) of 54.6 µM.
